Source: patent US20080119483A1, “COMPOSITIONS AND METHODS FOR INHIBITING PROTOZOAN GROWTH” (priority 2006, published 2008)
pEC50: −log10 of the molar value. Values joined by “and” are separate entries in the source; they are usually repeats but may differ in a detail not shown here. Equal entries are not always repeated. “Also recorded” adds a separate entry of the source. Where two headings read alike, the source gives them in different places. Starred links: 1 amine or outer side, 2 acyl side, 3 side chain; linkers in the order of their positions; H or OH if unused. Non-standard residues stand in square brackets, D forms with d. Residues, ends and D or L forms follow the SMILES beside them. X1 = CC[C@@H](C)[C@@H](O[*:1])C(=O)[*:2]; NMeVal(β-OH) = CN[C@H](C(=O)O)C(C)(C)O; NMeF = CN[C@@H](Cc1ccccc1)C(=O)O; aIle = CC[C@@H](C)[C@H](N)C(=O)O; NMeV = CN[C@H](C(=O)O)C(C)C

Legend:
[1] = test system: L. major ads1^− promastigotes; experiment: Growth inhibition assay, EPL-null ads1^− mutant versus FV1 WT; type: cell-based, Leishmania major; conditions: 96 hours for ads1^−
Experimental: (§1) Wild type (WT) L. major LV39 clone 5 (Rho/SU/59/P), FV1 (MOHM/IL/80/Friedlin virulent clone 1), spt2^− (Δspt2::HYG/Dspt2::PAC), ads1^− (Δads1::HYG/Dads1::SAT), and spt2^−/+SPT2 (Δspt2::HYG/Dspt2::PAC/+pXG-SPT2) cells were grown in M199 with 10% FBS and supplements as described [Zhang, et al., 2003; Kapler, et al., 1990]. For growth inhibition assays, promastigotes were inoculated at 1.0×10^5 cells/ml (in T25 flasks, 5 ml of medium per flask) in various concentrations of drugs. All cultures contained equivalent amount of DMSO or methanol (0.1% or less, from drug stocks). After 48 or 96 (for ads1^− only) hours, culture densities were determined using a Coulter counter (Z1, Beckman) and effects of drugs on growth were assessed in relative to cultures grown in the absence of drugs.

[2] = test system: L. major spt2^− promastigotes; experiment: microbe, parasite or virus in culture; type: cell-based, Leishmania major
Experimental: (§2) Log phase L. major LV39 WT and spt2 promastigotes were inoculated at 1.0×10^5 cells/ml and culture densities were determined 48 hours later.
as §1

[3] = test system: L. major LV39 WT promastigotes; experiment: microbe, parasite or virus in culture; type: cell-based, Leishmania major
Experimental: as §2, §1
A classical isobologram was constructed by plotting EC50s of drugs either alone or in combination.

[4] = test system: L. major spt2^− promastigotes; experiment: Composition of free sterols by GC/MS, spt2^− promastigotes; type: cell-based, Leishmania major; conditions: 48 hours
Experimental: (§3) Log phase L. major LV39 WT and spt2^− promastigotes were grown in the presence or absence of ITZ or CLT. Culture densities were determined 48 hours later and total lipids were extracted and the composition of free sterols was determined by GC/MS as described in Materials and Methods. ND: not detectable. Each experiment was repeated at least 3 times and results from one representative set were shown.
(§4) Here WT and spt2^− parasites were grown in various concentrations of ITZ (0.001 nM to 1 μM) or CLT (10 nM to 5 μM). Effects of ITZ and CLT on growth, sterol composition and DRM were analyzed after 48 hours. Basically, culture densities were determined using a particle counter and drugs' effects on growth were assessed in comparison to control cells (no drug); sterol lipids were extracted and analyzed by GC/MS and the percentage of 14-methylfecosterol (among all detectable sterol lipids) was used to reflect changes in sterol composition (see Table 2). DRMs were also isolated and the percentage of GP63 that were insoluble at 4° C. was used as an indicator for the integrity of DRM (see FIG. 2). Two to four independent experiments were performed and the averaged results were plotted in FIG. 3.
(§5) Total lipids were extracted using the Folch's method [Folch, et al., 1957]. Briefly, promastigotes were harvested by centrifugation and washed once with PBS. Pellets were resuspended in chloroform:methanol (2:1) at 1.0×10^8 cells/ml with the addition of cholesta-3,5-diene (Sigma-Aldrich, FW 368.7) at 0.5 mg/10^8 cells (6.6×10^7/cell). After vortexing for 30 s, cell debris was removed by centrifugation (1000 g for 10 min) and samples were washed with 0.2 volume of 0.9% NaCl. After centrifugation, supernatants were removed and the organic phase solutions were dried under a stream of nitrogen. Samples were then dissolved in chloroform:methanol (1:2) at 1.0×10^9 cells/ml.
(§6) Electron impact gas chromatography/mass spectrometry (GC/MS) analyses of sterol lipids were performed on a Finnigan (San Jose, Calif.) SSQ-7000 single-stage quadrupole mass spectrometer with a Varian (Walnut Creek, Calif.) 3400 GC, which is controlled by Finnigan ICIS software operated on a DEC alpha station. The extracts in solution […] were injected in a splitless mode and analyzed by GC on a Restek (Bellefonte, Pa.) RTX-5 column (15 m, 0.33 mm id, […]). The initial temperature of GC was set at 80° C. for 1 min, increased to 220° C. at a rate of 50° C./min, and then raised to a final temperature of 280° C. at a rate of 10° C./min. The temperatures of the injector, transfer line of the GC column, and of the ion-source were set at 280° C., 280° C., and 240° C., respectively. The full scan mass spectra (50 to 500 Dalton) were acquired at a rate of 1 scan/0.25 Sec.

[5] = test system: L. major LV39 WT promastigotes; experiment: Composition of free sterols by GC/MS, WT promastigotes; type: cell-based, Leishmania major; conditions: for 5-dehydroepisterol (%) / 14-methylfecosterol (%) / Cholesterol (%) / Episterol (%) / Ergosterol (%) / Total sterols/cell: 48 hours
Experimental: as §3, §4, §5, §6

[6] = test system: Leishmania major LV39 clone 5 promastigotes; experiment: Microtiter screen for synergy drugs (cellular ATP, luciferase based); type: cell-based; conditions: follow-up of class d hits
Description: Following inoculation, parasites were allowed to grow until late logarithmic phase. […] Parasites were inoculated without any drug, singly with the two prototypic synergistic drugs myriocin or itraconazole, or both drugs, at varying concentrations.

[7] = Leishmania major, 48 h, read-out: EC50 in spt2^−
[8] = Leishmania major, 48 h, LV39 WT promastigotes, 48 hours; read-out: EC50 in WT
[9] = spt2^− promastigotes, 48 hours; read-out: EC50 in spt2^−
[10] = LV39 WT promastigotes, 48 hours; read-out: EC50 in WT

With `CCCCCCCCCCCCCCCCCCOCC(COP(=O)([O-])OCC[N+](C)(C)C)OC` (racemic) [Edelfosine, 1-O-octadecyl-2-O-methyl-rac-glycero-3-phosphocholine] the “Sensitivity of ads1^− mutant in comparison to FV1 WT” value (“Sensitivity of ads1^− mutant” for short) [1] was “very similar EC50s; also recorded: little or no selectivity”, the pEC50 [2, 7] was 5.27 and the “EC50 (WT)/EC50 (spt2^−)” value ([2]; ratio) was 0.28. The “Selectivity against spt2^− parasites (in words)” value (“Selectivity” for short) ([2]; spt2^− versus LV39 WT) was “failed to show strong selectivity” and the pEC50 [3, 8] was 5.82.
`OC1(c2ccc(-c3ccccc3)cc2)CN2CCC1CC2` (stereo not drawn) [3-(Biphenyl-4-yl)-3-hydroxyquinuclidine] was tested, and the pEC50 [2, 7] was 5.95, the “EC50 (WT)/EC50 (spt2^−)” value ([2]; ratio) was 1.4 and the “Selectivity” value ([2]; spt2^− versus LV39 WT) was “did not cause the extreme hypersensitivity”. It also gave a pEC50 [3, 8] of 5.80.
With `C[C@@H]1[C@H](O)[C@@H](C)/C=C/C=C/C=C/C=C/C=C/C=C/C=C/[C@H](O[C@@H]2O[C@H](C)[C@@H](O)[C@H](N)[C@@H]2O)C[C@@H]2O[C@](O)(C[C@@H](O)C[C@@H](O)[C@H](O)CC[C@@H](O)C[C@@H](O)CC(=O)O[C@H]1C)C[C@H](O)[C@H]2C(=O)O` [Amphotericin B] the “EC50 (WT)/EC50 (spt2^−)” value ([2]; ratio) was 1.9, the pEC50 [2, 9] was 7.66 and the “Selectivity” value ([2]; spt2^− versus LV39 WT) was “nearly equally well”. For the same molecule, the pEC50 [3, 10] was 7.39.
`CC[C@@H](C)[C@@H]1NC(=O)[C@@H]2CCCN2C(=O)[C@H](Cc2ccccc2)N(C)C(=O)[C@H](Cc2ccccc2)NC(=O)[C@H](C(C)C)N(C)C(=O)[C@@H]([C@H](C)CC)OC(=O)[C@H](C(C)(C)O)N(C)C(=O)[C@H](CC(C)C)NC(=O)[C@H](C(C)C)N(C)C1=O` [Aureobasidin A] (cyclo(F[NMeF]P[aIle][NMeV]L[NMeVal(β-OH)][X1][NMeV])) was tested, and the “Sensitivity of ads1^− mutant” value [1] was “very similar EC50s”, the “EC50 (WT)/EC50 (spt2^−)” value ([2]; ratio) was 0.90 and the pEC50 [2, 9] was 6.21. The pEC50 [3, 10] was 6.25.
For `CC(C)[C@@H]1NC(=O)[C@H](Cc2ccccc2)NC(=O)[C@@H]2NC(=O)[C@H](Cc3ccccc3)NC(=O)[C@@H]3CCCN3C(=O)CNC(=O)[C@H](Cc3ccccc3)NC(=O)[C@@H]3CNCCCC[C@@H](C(=O)O)NC(=O)[C@@H]4NC(=O)[C@H](CC(N)=O)NC(=O)CNC(=O)[C@H]([C@@H](O)C(=O)O)NC(=O)[C@H](CSC[C@@H](NC(=O)[C@H](CCC(N)=O)NC(=O)[C@H](CCCNC(=N)N)NC(=O)[C@@H](N)CS[C@H]4C)C(=O)N[C@@H](CS[C@H]2C)C(=O)N3)NC1=O` [Cinnamycin], the “EC50 (WT)/EC50 (spt2^−)” value ([2]; ratio) was 1.0, the pEC50 [2, 9] was 5.51 and the “Selectivity” value ([2]; spt2^− versus LV39 WT) was “nearly equally well”. For the same molecule, the pEC50 [3, 10] was 5.51.
In the case of `Clc1ccccc1C(c1ccccc1)(c1ccccc1)n1ccnc1` [Clotrimazole], the “Growth (%)” value ([2]; spt2^− + 0.2 μM CLT, 48 hours) was 93.8%, the “Growth (%)” value ([2]; spt2^− + 0.5 μM CLT, 48 hours) was 62.8% and the “5-dehydroepisterol (%)” value ([4]; spt2^− + 0.2 μM CLT) was 44.1%. For the same molecule, the “14-methylfecosterol (%)” value ([4]; spt2^− + 0.2 μM CLT) was 21.5%, the “Cholesterol (%)” value ([4]; spt2^− + 0.2 μM CLT) was 20.2% and the “Episterol (%)” value ([4]; spt2^− + 0.2 μM CLT) was 10.7%. For the same molecule, the “Ergosterol (%)” value ([4]; spt2^− + 0.2 μM CLT) was 3.5%, the Total sterols/cell ([4]; spt2^− + 0.2 μM CLT) was 3.5 × 10^8 /cell and the “5-dehydroepisterol (%)” value ([4]; spt2^− + 0.5 μM CLT) was 23.9%. The “14-methylfecosterol (%)” value ([4]; spt2^− + 0.5 μM CLT) was 50.3%, the “Cholesterol (%)” value ([4]; spt2^− + 0.5 μM CLT) was 21.1% and the “Episterol (%)” value ([4]; spt2^− + 0.5 μM CLT) was 3.5%. The “Ergosterol (%)” value ([4]; spt2^− + 0.5 μM CLT) was 1.2%, the Total sterols/cell ([4]; spt2^− + 0.5 μM CLT) was 3.1 × 10^8 /cell and the “CLT concentration needed to achieve any noticeable effects on growth, sterol composition, or DRMs” value [3] was over 100 nM. For the same molecule, the “Growth (%)” value [3] was 76.9% and 78.7%, the “5-dehydroepisterol (%)” value ([5]; WT + 0.2 μM CLT) was 63.7% and the “14-methylfecosterol (%)” value ([5]; WT + 0.2 μM CLT) was 9.9%. The “Cholesterol (%)” value ([5]; WT + 0.2 μM CLT) was 4.5%, the “Episterol (%)” value ([5]; WT + 0.2 μM CLT) was 17.5% and the “Ergosterol (%)” value ([5]; WT + 0.2 μM CLT) was 4.4%. The Total sterols/cell ([5]; WT + 0.2 μM CLT) was 3.3 × 10^8 /cell, the “5-dehydroepisterol (%)” value ([5]; WT + 0.5 μM CLT) was 42.0% and the “14-methylfecosterol (%)” value ([5]; WT + 0.5 μM CLT) was 47.1%. The “Cholesterol (%)” value ([5]; WT + 0.5 μM CLT) was 3.9%, the “Episterol (%)” value ([5]; WT + 0.5 μM CLT) was 5.1% and the “Ergosterol (%)” value ([5]; WT + 0.5 μM CLT) was 1.9%. For the same molecule, the Total sterols/cell ([5]; WT + 0.5 μM CLT) was 2.2 × 10^8 /cell.
With `CC(=O)N1CCN(c2ccc(OCC3COC(Cn4ccnc4)(c4ccc(Cl)cc4Cl)O3)cc2)CC1` (stereo not drawn) [Ketoconazole] the “Sensitivity of ads1^− mutant” value [1] was “hypersensitive”, the pEC50 [2, 7] was 8.00 and the “EC50 (WT)/EC50 (spt2^−)” value ([2]; ratio) was 310. The “Effect of supplementation of ethanolamine or choline on the sensitivity in spt2^− parasites” value ([2]; spt2^− with EtN or choline) was “almost no effect”, the Effect on growth [3] was “only minor effect on growth” and the pEC50 ([3]; Leishmania major, 48 h, read-out: EC50 in WT) was about 5.51. The “Effect on sterol composition” value ([5]; LV39 WT, 5-10 nM) was “completely altered the sterol composition”.
`CCn1nc(C(=O)O)c(=O)c2cc3c(cc21)OCO3` [cinoxacin] was tested, and the “Confirmation of synergy with itraconazole” value [6] was “not confirmed”.
For `C=C(C)C(=O)C(=CC(=O)O)OC` [penicillic acid], the “Confirmation of synergy with itraconazole” value [6] was “confirmed” and the “Synergy effect with itraconazole” value [6] was about 2 fold.
For Mevinolin, the “EC50 (WT)/EC50 (spt2^−)” value ([2]; ratio) was 1.0, the pEC50 ([2]; read-out: EC50 in spt2^−; spt2^− promastigotes, 48 hours) was 4.82 and the “Selectivity” value ([2]; spt2^− versus LV39 WT) was “did not cause the extreme hypersensitivity”. For the same molecule, the pEC50 ([3]; read-out: EC50 in WT; LV39 WT promastigotes, 48 hours) was 4.82.
